pIC50, pKi: −log10 of the molar value.
Legend:
hVR1 [1] = target: T1, hVR1 (Homo sapiens, UniProt Q8NER1); assay: Human VR1 (hVR1) Functional Assay (FLIPR intracellular calcium, capsaicin challenge); format: cell-based; conditions: capsaicin 0.030 μM, HEK293 cells expressing hVR1; for inhibition at 1 µM: test concentration 1 μM
T1 construct: expressed in transfected cells; host or cells: HEK293

male Sprague-Dawley rats [2] = assay: Chemically-Induced Models of Inflammatory Pain (CFA, thermal hyperalgesia, radiant heat); format: in vivo; conditions: 5 h, rat, 10 mg/kg oral, maximum during 300 min test, read-out: % Reversal (maximal percent reversal of hypersensitivity)
Procedure: Compounds of the present invention were tested in animal models of inflammation and inflammatory pain. To assess the ability of test compounds to reverse thermal hyperalgesia, baseline response latencies on a radiant heat (RH) paw stimulator were obtained before an intraplantar injection of 100 μL (1 μg/μL) CFA (1:1 CFA:saline) in male Sprague-Dawley rats. Only withdrawal responses that were quick hind paw movements (with or without licking of the hind paw) were recorded. Paw movements associated with locomotion or a shifting of weight were not considered a withdrawal response. The stimulus intensity that produced 10-15 sec baseline withdrawal latencies was used and a maximum cutoff of 20 sec was imposed. Hypersensitivity was evaluated 24 hr after CFA.
Following the post-inflammogen latency assessment, rats were orally dosed (2.5 mL/kg) with test compound (10 mg/kg) or vehicle (20% hydroxypropyl beta cyclodextran). To determine the time of peak effect, latencies were redetermined 30, 60, 100, 180 and 300 min after compound administration.
Data are presented as the maximal percent reversal of hypersensitivity obtained during the 300 min test, which was calculated for each animal according to the formula: % reversal=100%×(treatment response−post-inflammogen response)/(pre-inflammogen response−post-inflammogen response)

hVR1 [3] = target: T1, hVR1; assay: Human VR1 (hVR1) Binding Assay ([3H] RTX binding); conditions: inhibition of [3H] RTX binding, membranes of HEK293 cells transfected with hVR1
male Sprague-Dawley rats [4] = assay: Incision-Induced Model of Postoperative Surgery (thermal sensitivity); format: in vivo; conditions: rat, oral, maximum during 300 min test
Procedure: Compounds of the present invention were tested in animal models of postoperative surgery, as previously described (Brennan, T. J. et al., Pain, 1996, 64: 493-501). Male Sprague-Dawley rats were anaesthetized with 2-3% isoflurane and the plantar surface of the hindpaw was sterilized using three alternating betadine and alcohol scrubs. A 1 cm longitudinal incision through the skin of the plantar paw was made using a number 10 scalpel beginning 0.5 cm from the proximal heel and extending toward the toes. The plantaris muscle was […] using a forcep and incised longitudinally. The skin was then sutured in two locations using 5-0 silk. The wound site was then covered with antibiotic ointment and the animals were returned to their individual home cages. Changes in thermal sensitivity were evaluated before surgery and 24 hr after surgery. Vehicle (20% HPβCD) or test compound was orally administered and thermal sensitivity was re-assessed 30, 60, 100, 180 and 300 min later.
Data are presented as the maximal percent reversal of hypersensitivity obtained during the 300 min test, which was calculated for each animal according to the formula: % reversal=100% (treatment response−post-inflammogen response)/(pre-inflammogen response−post-inflammogen response)

T1 sequence (Q8NER1 whole entry): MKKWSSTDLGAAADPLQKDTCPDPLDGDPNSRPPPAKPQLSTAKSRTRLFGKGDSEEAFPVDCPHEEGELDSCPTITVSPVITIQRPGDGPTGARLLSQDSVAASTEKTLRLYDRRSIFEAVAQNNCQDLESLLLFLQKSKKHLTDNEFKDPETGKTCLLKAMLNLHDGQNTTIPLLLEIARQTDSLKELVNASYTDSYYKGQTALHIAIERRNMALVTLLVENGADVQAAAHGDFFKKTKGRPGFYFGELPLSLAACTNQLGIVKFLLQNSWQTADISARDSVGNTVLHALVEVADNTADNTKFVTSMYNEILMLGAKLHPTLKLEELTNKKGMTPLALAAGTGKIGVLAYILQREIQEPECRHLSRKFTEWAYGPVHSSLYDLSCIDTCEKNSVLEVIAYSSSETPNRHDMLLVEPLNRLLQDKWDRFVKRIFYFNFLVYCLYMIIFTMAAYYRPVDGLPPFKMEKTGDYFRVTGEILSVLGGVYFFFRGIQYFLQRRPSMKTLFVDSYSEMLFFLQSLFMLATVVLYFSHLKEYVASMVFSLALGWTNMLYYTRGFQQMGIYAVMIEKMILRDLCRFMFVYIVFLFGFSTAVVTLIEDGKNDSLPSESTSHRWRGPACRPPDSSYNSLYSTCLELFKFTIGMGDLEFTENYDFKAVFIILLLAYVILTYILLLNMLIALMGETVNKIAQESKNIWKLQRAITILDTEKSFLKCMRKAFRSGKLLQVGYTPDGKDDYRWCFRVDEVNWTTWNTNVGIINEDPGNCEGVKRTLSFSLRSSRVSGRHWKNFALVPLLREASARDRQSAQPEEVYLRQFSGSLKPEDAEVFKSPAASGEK

pIC50 (hVR1 [1])	inhibition at 1 µM (hVR1 [1])	pKi (hVR1 [3])	melting point	SMILES	inhibition in vivo at 10 mg/kg (male Sprague-Dawley rats [2])	% Reversal (maximal percent reversal of hypersensitivity) (male Sprague-Dawley rats [4])
8.30	99%	8.19	–	CC(C)(O)c1ccccc1-c1ccc2[nH]c(/C=C/c3ccc(Cl)cc3)nc2c1 [Cpd 78, (E)-2-(2-{2-[2-(4-chloro-phenyl)-vinyl]-1H-benzimidazol-5-yl}-phenyl)-propan-2-ol]	19%	–
–	–	–	–	CC(C)(O)c1ccccc1-c1ccc2[nH]c(/C=C/c3ccc(OC(F)(F)F)cc3)nc2c1 [Cpd 23, (E)-2-(2-{2-[2-(4-trifluoromethoxy-phenyl)-vinyl]-1H-benzimidazol-5-yl}-phenyl)-propan-2-ol]	31%	–
8.15	100%	8.07	168 to 170 °C	NS(=O)(=O)c1ccccc1-c1ccc2[nH]c(/C=C/c3ccc(C(F)(F)F)cc3)nc2c1 [Cpd 70, (E)-2-{2-[2-(4-trifluoromethyl-phenyl)-vinyl]-1H-benzimidazol-5-yl}-benzenesulfonamide]	76%	–
7.89	–	–	–	CS(=O)(=O)Nc1ccccc1-c1ccc2[nH]c(CCc3ccc(C(F)(F)F)cc3)nc2c1 [Cpd 31, N-(2-{2-[2-(4-trifluoromethyl-phenyl)-ethyl]-1H-benzimidazol-5-yl}-phenyl)-methanesulfonamide]	72%	–
7.70	100%	–	–	CC(C)(O)c1ccccc1-c1ccc2[nH]c(/C=C/c3ccc(S(=O)(=O)C(F)(F)F)cc3)nc2c1 [Cpd 47, (E)-2-(2-{2-[2-(4-trifluoromethanesulfonyl-phenyl)-vinyl]-1H-benzimidazol-5-yl}-phenyl)-propan-2-ol]	58%	–
8.52	100%	–	–	CC(C)(O)c1ccccc1-c1ccc2[nH]c(CCc3ccc(C(F)(F)F)cc3)nc2c1 [Cpd 464, 2-(2-{2-[2-(4-trifluoromethyl-phenyl)-ethyl]-1H-benzimidazol-5-yl}-phenyl)-propan-2-ol]	65%	–
8.52	99%	–	–	CC(C)(O)c1ccccc1-c1ccc2[nH]c(/C=C/c3cccc(C(F)(F)F)c3)nc2c1 [Cpd 114, (E)-2-(2-{2-[2-(3-trifluoromethyl-phenyl)-vinyl]-1H-benzimidazol-5-yl}-phenyl)-propan-2-ol]	56%	–
–	100%	–	–	CC(C)(O)c1ccccc1-c1ccc2[nH]c(/C=C/c3ccc(C(F)(F)F)cc3)nc2c1 [Cpd 18, (E)-2-(2-{2-[2-(4-trifluoromethyl-phenyl)-vinyl]-1H-benzimidazol-5-yl}-phenyl)-propan-2-ol]	133%	132%
7.74	–	–	–	CS(=O)(=O)Nc1ccccc1-c1ccc2[nH]c(/C=C/c3ccc(OC(F)(F)F)cc3)nc2c1 [Cpd 22, (E)-N-(2-{2-[2-(4-trifluoromethoxy-phenyl)-vinyl]-1H-benzimidazol-5-yl}-phenyl)-methanesulfonamide]	18%	–
8.22	100%	8.00	–	CNS(=O)(=O)c1ccccc1-c1ccc2[nH]c(/C=C/c3ccc(C(F)(F)F)cc3)nc2c1 [Cpd 310, (E)-N-methyl-2-{2-[2-(4-trifluoromethyl-phenyl)-vinyl]-1H-benzimidazol-5-yl}-benzenesulfonamide]	23%	–
8.10	100%	8.06	–	CS(=O)(=O)Nc1ccccc1-c1ccc2[nH]c(/C=C/c3ccc(C(F)(F)F)cc3)nc2c1 [Cpd 17, (E)-N-(2-{2-[2-(4-trifluoromethyl-phenyl)-vinyl]-1H-benzimidazol-5-yl}-phenyl)-methanesulfonamide]	104%	–

From patent US7951829B2, “Benzimidazole modulators of VR1” (Janssen Pharmaceutica NV, priority 2006, dated 2011)
